Where a name gives a salt, the structure may show the parent alone. Read-outs that look alike come from different tables or passages of the source.
Key:
human OPRM1 (μ, MOR) [1] = target: T1, human OPRM1 (μ, MOR) (Homo sapiens, UniProt P35372); assay: cell-based; details: for Emax: OPRM1, read-out: cAMP Emax; for EC50: PathHunter human OPRM1 Arrestin CHO-K1 cell line, read-out: cAMP EC50
T1 construct: host or cells: CHO-K1
Procedure: G-protein signaling was measured via second messenger cAMP modulation. Detection of cAMP modulation was accomplished in the PathHunter human OPRM1 (μ, MOR) Arrestin CHO-K1 cell line using the Dynamic2 cAMP Kit from Cisbio.

human OPRM1 (μ, MOR) [2] = target: T1, human OPRM1 (μ, MOR); assay: cell-based; details: for Emax: OPRM1, read-out: β-Arrestin Emax; for EC50: PathHunter human OPRM1 Arrestin CHO-K1 cell line, read-out: β-Arrestin EC50
Procedure: The Discoverx PathHunter® β-Arrestin assay is used to measure β-arrestin-2 activity. The technology is based on Enzyme Fragment Complementation (EFC) with β-galactosidase (β-Gal) as the reporter. […] EA is fused to Q-arrestin-2, and ED is fused to the C-terminus of the GPCR of interest. When a ligand binds and the GPCR is activated, Q-arrestin-2 is recruited to the receptor resulting in an ED/EA complementation, restoring f-Gal activity, which is measured using chemiluminescence. For this assay, the PathHunter human OPRM1 (μ, MOR) Arrestin CHO-K1 cell line was used.

human OPRM1 (μ, MOR) [3] = target: T1, human OPRM1 (μ, MOR); assay type: cell-based; details: for ΔRA of compound: relative activity from EC50 and Emax of β-arrestin vs cAMP, lower RA = more G-protein biased
Procedure: In certain embodiments, the ability of a compound to activate G-protein or β-arrestin is not an on/off switch for a given pathway, but rather a continuous function. To capture this, each compound is measured for activity in cell assays that are linked to β-arrestin recruitment and G-protein signaling. By comparing the activity between these two measures (accounting for both EC50 and maximal response reached, Emax) a relative activity (RA) value is determined.
In the case of MOR it is desirable to have high activation of the G-protein pathway while reducing activation of β-arrestin. In the case of the formula above, this means a lower RA.

T1 sequence (P35372 whole entry): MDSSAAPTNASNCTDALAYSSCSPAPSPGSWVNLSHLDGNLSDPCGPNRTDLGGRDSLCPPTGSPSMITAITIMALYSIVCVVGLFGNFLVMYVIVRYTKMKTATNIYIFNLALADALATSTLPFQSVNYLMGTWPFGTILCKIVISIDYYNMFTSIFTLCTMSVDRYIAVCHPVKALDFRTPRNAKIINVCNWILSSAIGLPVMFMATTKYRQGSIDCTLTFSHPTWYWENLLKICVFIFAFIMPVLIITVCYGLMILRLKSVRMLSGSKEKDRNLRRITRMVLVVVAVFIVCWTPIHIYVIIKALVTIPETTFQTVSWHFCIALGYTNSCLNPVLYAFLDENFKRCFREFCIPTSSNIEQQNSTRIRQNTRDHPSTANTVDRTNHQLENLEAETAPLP

Compound	Emax (human OPRM1 (μ, MOR) [1]) [%]	EC50 (human OPRM1 (μ, MOR) [1]) [nM]	Emax (human OPRM1 (μ, MOR) [2]) [%]	EC50 (human OPRM1 (μ, MOR) [2]) [nM]	Bias Factor (ΔRA of compound relative to ΔRA of DAMGO) × 10 (human OPRM1 (μ, MOR) [3])	ΔRA of compound (human OPRM1 (μ, MOR) [3])	Bias Factor (ΔRA of compound relative to ΔRA of DAMGO) × 10 (human OPRM1 (μ, MOR) [3]; hydrochloride)	ΔRA of compound (human OPRM1 (μ, MOR) [3]; hydrochloride)
CN(C)C(CNC(=O)NC1CCCc2ccccc21)c1ccsc1 (stereo not drawn) [Compound 11a, 1-(2-(Dimethylamino)-2-(thiophen-3-yl)ethyl)-3-(1,2,3,4-tetrahydronaphthalen-1-yl)urea hydrochloride]	94.3	< 1	112	21	2.32	−1.24		
CN(C)C(CNC(=O)N(C)C1CCCc2ccccc21)c1ccsc1 (stereo not drawn) [Compound 13a, 3-(2-(Dimethylamino)-2-(thiophen-3-yl)ethyl)-1-methyl-1-(1,2,3,4-tetrahydronaphthalen-1-yl)urea hydrochloride]	95.3	68	11.3	1680	−8.39	−2.3		
CN(C)C(CNC(=O)N1Cc2ccccc2C1)c1ccc(F)cc1Cl (stereo not drawn) [Compound 14a, N-(2-(2-Chloro-4-fluorophenyl)-2-(dimethylamino)ethyl)isoindoline-2-carboxamide hydrochloride]	102	56	61.2	3960	−5.91	−2.07		
COc1ccc(C(CNC(=O)N2Cc3ccccc3C2)N(C)C)cc1 (stereo not drawn) [Compound 15a, N-(2-(Dimethylamino)-2-(4-methoxyphenyl)ethyl)isoindoline-2-carboxamide hydrochloride]	108	15	44.2	1370	−8.71	−2.35		
COc1ccc(C(CNC(=O)N2Cc3ccc(F)cc3C2)N(C)C)cc1 (stereo not drawn) [Compound 16a, N-(2-(Dimethylamino)-2-(4-methoxyphenyl)ethyl)-5-fluoroisoindoline-2-carboxamide hydrochloride]	91.9	26	12.2	950	−9.60	−2.44		
CN(C)C(CNC(=O)N1Cc2ccc(F)cc2C1)c1ccc(F)cc1Cl (stereo not drawn) [Compound 17a, N-(2-(2-Chloro-4-fluorophenyl)-2-(dimethylamino)ethyl)-5-fluoroisoindoline-2-carboxamide hydrochloride]	111	43	27	5120	−12.08	−2.69		
CN(C)C(CNC(=O)N1Cc2ccccc2C1)c1ccccc1 (stereo not drawn) [Compound 18a, N-(2-(Dimethylamino)-2-phenylethyl)isoindoline-2-carboxamide hydrochloride]	100	23	6.91	730			−11.84	−2.66
CN(C)C(CNC(=O)NC1CCc2ccccc2C1)c1ccccc1 (stereo not drawn) [Compound 19a, 1-(2-(Dimethylamino)-2-phenylethyl)-3-(1,2,3,4-tetrahydronaphthalen-2-yl)urea hydrochloride]	86.1	32	2.34	> 100000	<−14.83	<−2.96		
CN(C)C(CNC(=O)N1Cc2ccc(F)cc2C1)c1ccccc1 (stereo not drawn) [Compound 20a, N-(2-(Dimethylamino)-2-phenylethyl)-5-fluoroisoindoline-2-carboxamide hydrochloride]	70.8	31	3.65	> 100000	<−14.83	<−2.96		
CN(C)C(CNC(=O)N1Cc2ccc(O)cc2C1)c1ccsc1 (stereo not drawn) [Compound 22, N-(2-(Dimethylamino)-2-(thiophen-3-yl)ethyl)-5-hydroxyisoindoline-2-carboxamide hydrobromide]	16.3	322	< 1	> 100000	<−14.83	<−2.96		
CN(C)C(CNC(=O)N1Cc2ccc(O)cc2C1)c1ccc(O)cc1 (stereo not drawn) [Compound 24, N-(2-(dimethylamino)-2-(4-hydroxyphenyl)ethyl)-5-hydroxyisoindoline-2-carboxamide hydrobromide]	< 10	> 100000	< 1	> 100000	<−14.83	<−2.96		
CN(C)[C@H](CCNC(=O)N1Cc2ccc(F)cc2C1)c1ccsc1 [Compound 30-R, (R)—N-(3-(Dimethylamino)-3-(thiophen-3-yl)propyl)-5-fluoroisoindoline-2-carboxamide]	109	603	9.2	5730	−5.73	−2.05		
CN(C)[C@@H](CCNC(=O)N1Cc2ccc(F)cc2C1)c1ccsc1 [Compound 30-S, (S)—N-(3-(Dimethylamino)-3-(thiophen-3-yl)propyl)-5-fluoroisoindoline-2-carboxamide]	96.1	688	9.9	> 100000	<−14.83	<−2.96		
CNC(CNC(=O)N1Cc2ccc(F)cc2C1)c1ccsc1 (stereo not drawn) [Compound 35, 5-Fluoro-N-(2-(methylamino)-2-(thiophen-3-yl)ethyl)isoindoline-2-carboxamide]	26.4	1170	< 1	> 100000	<−14.83	<−2.96		
CNC(CNC(=O)N1Cc2ccccc2C1)c1ccccc1 (stereo not drawn) [Compound 38, N-(2-(methylamino)-2-phenylethyl)isoindoline-2-carboxamide]	95.9	45	6.6	1670	−12.56	−2.74		
CN(C)C(CNC(=O)N(C)[C@H]1CCCc2ccccc21)c1ccsc1 (stereo partly drawn) [Compound 39]	93.4	118	10.9	644	−1.90	−1.67		
CN(C)C(CNC(=O)N1CC[C@H](c2ccccc2)C1)c1ccsc1 (stereo partly drawn) [Compound 40]	53.5	152	3.3	> 100000	<−14.83	<−2.96		
COc1ccc(C(CNC(=O)N2CC[C@@H](c3ccccc3)C2)N(C)C)cc1 (stereo partly drawn) [Compound 42]	21.9	7430	< 1	> 100000	<−14.83	<−2.96		
COc1ccc(C(CNC(=O)N2CC[C@H](c3ccccc3)C2)N(C)C)cc1 (stereo partly drawn) [Compound 43]	54.2	1720	< 1	> 100000	<−14.83	<−2.96		

Source: patent publication US20220315567A1 (priority 2016, published 2022)
